This is an account of results in patent US11028066B2, “Inhibitors of lysine specific demethylase-1” (CELGENE QUANTICEL RESEARCH, INC., priority 2014, dated 2021).

For one assay, the target named is full-length human LSD1 (Homo sapiens (Human), UniProt O60341). The experiment in a line: In vitro enzyme inhibition assay LSD-1 (TR-FRET). The conditions noted are these: H3K4me1-biotin peptide. It is filed as biochemical. How it is done:
This assay determines the ability of a test compound to inhibit LSD1 demethylase activity.
The enzymatic assay of LSD1 activity is based on Time Resolved-Fluorescence Resonance Energy Transfer (TR-FRET) detection.
Plates were read by EnVision Multilabel Reader in TR-FRET mode (excitation at 320 nm, emission at 615 nm and 665 nm) after 1 hour incubation at room temperature.
The ability of the compounds disclosed herein to inhibit LSD1 activity was quantified and the respective IC50 value was determined.
On the technique in general: Time-resolved FRET reads energy transfer from a long-lived donor to a nearby acceptor.

For the next assay, the system named is THP-1 (AML) cells. The experiment in a line: LSD1 CD11b cellular assay (flow cytometry). It is filed as cell-based. The conditions noted are these: Homo sapiens, THP-1, 96 h; CD11b expressing cells, 4 days incubation. The method, then:
To analyze LSD1 inhibitor efficacy in cells, a CD11b flow cytometry assay was performed. LSD1 inhibition induces CD11b expression in THP-1 (AML) cells which can be measured by flow cytometry. […] LSD1 test compounds were serially diluted in DMSO. The dilutions were added to each well accordingly to a final concentration of 0.2% DMSO. The cells were incubated at 37 degrees Celsius in 5% CO2 for 4 days. 250 μL of each well was transferred to a well in a 96 well round bottom plate. The plate was centrifuged at 1200 rpm at 4 degrees Celsius in a Beckman Coulter Alegra 6KR centrifuge for 5 minutes. The media was removed leaving the cells at the bottom of the wells. The cells were washed in 100 μL cold HBSS (Hank's Balanced Salt Solution) plus 2% BSA (Bovine Serum Albumin) solution and centrifuged at 1200 rpm at 4 degrees Celsius for 5 minutes. The wash was removed. […] The cells were centrifuged and washed two times in 100 μL HBSS plus 2% BSA. After the final spin the cells were resuspended in 100 μL HBSS plus 2% BSA containing 1 ug/mL DAPI (4′,6-diamidino-2-phenylindole). The cells were then analyzed by flow cytometry in a BD FACSAria machine. Cells were analyzed for CD11b expression. The percent of CD11b expressing cells for each inhibitor concentration was used to determine an IC50 curve for each compound analyzed.

A further assay deals with Kasumi-1. Kind of assay: Kasumi-1 AML cell line proliferation assay (Cell-MTS assay). It is filed as cell-based. The conditions noted are these: Homo sapiens, 168 hours incubation. The text has this: Colorimetric cellular assay to assess the ability of LSD-1 small molecule inhibitors to effect the proliferation of the established AML cancer cell line Kasumi-1.
This Cell-MTS assay is a 7-day plate based colorimetric assay which quantifies the amount of newly generated NADH in the presence and absence of test compound. These NADH levels are used as a proxy for the quantification of cancer cell proliferation.
The established cancer cell line Kasumi-1 with a verified p53 mutation were purchased from American Type Culture Collection (ATCC) and routinely passaged according to ATCC published protocols. For routine assay these cells were seeded at a density of 20,000 cells per 96-well. 24 hours after plating, cells received an 11 point dilution of test compound with final concentration ranges from 100 μM to 2.0 nM. Cells are incubated in the presence of compound for 168 hours at 37° C., 5% CO2. At the end of this compound incubation period, 80 μl of media is removed and 20 μL of CellTiter 96® AQueous Non-Radioactive Cell Proliferation Assay solution (Promega) is added. The cells are incubated until the OD490 is >0.6. IC50 values are calculated using the IDBS XLfit software package and include background subtracted OD490 values and normalization to DMSO controls.
Table 5 provides the Kasumi-1 cellular IC50 values of various substituted heterocyclic compounds disclosed herein.
Background: Tetrazolium assays rely on reduction of a dye to a coloured formazan, in cell work by metabolically active cells.

One may read the IC50 as the concentration at which inhibition is half-maximal. In the case of `COc1ccc(-c2c(-c3ccc(C#N)cc3)cc(N3CCC(N)CC3)c(=O)n2C)cc1` [Example 77, 4-[5-(4-aminopiperidin-1-yl)-2-(4-methoxyphenyl)-1-methyl-6-oxopyridin-3-yl]benzonitrile], the IC50 was less than 0.1 µM against full-length human LSD1, less than 0.1 µM in the assay with THP-1 (AML) cells and not above 0.1 µM in the assay on Kasumi-1.

As for `Cn1c(-c2ccc(C3CC3)cc2)c(-c2ccc(C#N)c(F)c2)cc(NC[C@H]2CCNC2)c1=O` [Example 74, (S)-4-(2-(4-cyclopropylphenyl)-1-methyl-6-oxo-5-(pyrrolidin-3-ylmethylamino)-1,6-dihydropyridin-3-yl)-2-fluorobenzonitrile], the IC50 at full-length human LSD1 was less than 0.1 µM; in the assay with THP-1 (AML) cells, less than 0.1 µM; with Kasumi-1, not above 0.1 µM.

Take `Cn1c(-c2ccc3c(c2)ncn3C)c(-c2ccc(C#N)c(F)c2)nc(N2CCC(N)CC2)c1=O` [Example 60, 4-[6-(4-amino-piperidin-1-yl)-4-methyl-3-(1-methyl-1H-benzoimidazol-5-yl)-5-oxo-4,5-dihydro-pyrazin-2-yl]-2-fluoro-benzonitrile]: the IC50 against full-length human LSD1 was less than 0.1 µM; in the assay on THP-1 (AML) cells, less than 0.1 µM; in the assay with Kasumi-1, not above 0.1 µM.

Consider `COc1ccc(-c2c(-c3ccc(C#N)cc3)nc(NC[C@H]3CCNC3)c(=O)n2C)cc1` [Example 31, 4-[3-(4-methoxyphenyl)-4-methyl-5-oxo-6-{[(3S)-pyrrolidin-3-ylmethyl]amino}-4,5-dihydropyrazin-2-yl]benzonitrile], for which the IC50 is less than 0.1 µM at full-length human LSD1, less than 0.1 µM in the assay with THP-1 (AML) cells and not above 0.1 µM in the assay on Kasumi-1.

Take `Cc1ccc(-c2c(-c3ccc(C#N)cc3)nc(N3CCC(N)CC3)c(=O)n2CCO)cc1` [Example 37, 4-[6-(4-amino-piperidin-1-yl)-4-(2-hydroxy-ethyl)-5-oxo-3-p-tolyl-4,5-dihydro-pyrazin-2-yl]-benzonitrile]: the concentration for half-maximal inhibition (IC50) on full-length human LSD1 and with THP-1 (AML) cells was less than 0.1 µM throughout.

On to `COCCn1c(-c2ccc(C)cc2)c(-c2ccc(C#N)c(F)c2)nc(N2CCC(N)CC2)c1=O` [Example 41, 4-[6-(4-amino-piperidin-1-yl)-4-(2-methoxy-ethyl)-5-oxo-3-p-tolyl-4,5-dihydro-pyrazin-2-yl]-2-fluoro-benzonitrile], for which the IC50 against full-length human LSD1 and in the assay on THP-1 (AML) cells was less than 0.1 µM in each case.

Turning to `COc1ccc(-c2c(-c3ccc(C#N)cc3)nc(N3CCC(N)CC3)c(=O)n2C)cc1` [Example 30, 4-[6-(4-aminopiperidin-1-yl)-3-(4-methoxyphenyl)-4-methyl-5-oxo-4,5-dihydropyrazin-2-yl]benzonitrile], the IC50 at full-length human LSD1 and in the assay on THP-1 (AML) cells was less than 0.1 µM each time.

For `CCc1ccc(-c2c(-c3ccc(C#N)nc3)cc(NC[C@H]3CCNC3)c(=O)n2C)cc1` [Example 71, (S)-5-(2-(4-ethylphenyl)-1-methyl-6-oxo-5-(pyrrolidin-3-ylmethylamino)-1,6-dihydropyridin-3-yl)picolinonitrile], the IC50 against full-length human LSD1 and in the assay with THP-1 (AML) cells was less than 0.1 µM throughout.

In the case of `COc1ccc(-c2c(-c3ccc(C#N)c(F)c3)nc(N3CCC(N)CC3)c(=O)n2C)cc1` [Example 52, 4-[6-(4-amino-piperidin-1-yl)-3-(4-methoxy-phenyl)-4-methyl-5-oxo-4,5-dihydro-pyrazin-2-yl]-2-fluoro-benzonitrile], the IC50 against full-length human LSD1 and in the assay on THP-1 (AML) cells was less than 0.1 µM in each case.

`COc1ccc(-c2c(-c3ccc(C#N)nc3)cc(NC[C@H]3CCNC3)c(=O)n2C)cc1` [Example 69, (S)-5-(2-(4-methoxyphenyl)-1-methyl-6-oxo-5-(pyrrolidin-3-ylmethylamino)-1,6-dihydropyridin-3-yl)picolinonitrile]: the IC50 was less than 0.1 µM against full-length human LSD1 and 0.1 to 1 µM in the assay on THP-1 (AML) cells.

Turning to `CNC1CCN(c2cc(-c3ccc(C#N)c(F)c3)c(-c3ccc(OC)c(F)c3)n(C)c2=O)CC1` [Example 86, 2-fluoro-4-[2-(3-fluoro-4-methoxyphenyl)-1-methyl-5-[4-(methylamino)piperidin-1-yl]-6-oxopyridin-3-yl]benzonitrile], the IC50 against full-length human LSD1 and in the assay with THP-1 (AML) cells was less than 0.1 µM each time.

Consider `COc1cccc(Cn2cc(-c3ccc(C#N)cc3)nc(N3CCC(N)CC3)c2=O)c1` [Example 10, 4-[6-(4-aminopiperidin-1-yl)-4-[(3-methoxyphenyl)methyl]-5-oxo-4,5-dihydropyrazin-2-yl]benzonitrile], for which the IC50 against full-length human LSD1 is less than 0.1 µM; in the assay with THP-1 (AML) cells it was 0.1 to 1 µM.

Take `Cn1c(-c2ccc(OC(F)(F)F)cc2)c(-c2ccc(C#N)c(F)c2)nc(NC[C@H]2CCNC2)c1=O` [Example 63, 2-fluoro-4-[4-methyl-5-oxo-6-[((3S)-pyrrolidin-3-ylmethyl)-amino]-3-(4-trifluoromethoxy-phenyl)-4,5-dihydro-pyrazin-2-yl]-benzonitrile]: the IC50 on full-length human LSD1 and in the assay with THP-1 (AML) cells was less than 0.1 µM throughout.

As to `Cn1c(-c2ccc(C3CC3)cc2)c(-c2ccc(C#N)nc2)nc(NC[C@H]2CCNC2)c1=O` [Example 58, 5-{3-(4-cyclopropyl-phenyl)-4-methyl-5-oxo-6-[((3S)-pyrrolidin-3-ylmethyl)-amino]-4,5-dihydro-pyrazin-2-yl}-pyridine-2-carbonitrile], the IC50 was less than 0.1 µM on full-length human LSD1 and 0.1 to 1 µM in the assay with THP-1 (AML) cells.

Turning to `CCc1ccc(-c2c(-c3ccc(C#N)cc3)nc(N3CCC(N)CC3)c(=O)n2C)cc1` [Example 27, 4-[6-(4-aminopiperidin-1-yl)-3-(4-ethylphenyl)-4-methyl-5-oxo-4,5-dihydropyrazin-2-yl]benzonitrile], the IC50 on full-length human LSD1 and in the assay with THP-1 (AML) cells was less than 0.1 µM in each case.

With `CNC1CCN(c2nc(-c3ccc(C#N)c(F)c3)c(-c3ccc(C)cc3)n(CCO)c2=O)CC1` [Example 65, 2-Fluoro-4-[4-(2-hydroxy-ethyl)-6-(4-methylamino-piperidin-1-yl)-5-oxo-3-p-tolyl-4,5-dihydro-pyrazin-2-yl]-benzonitrile], the IC50 against full-length human LSD1 and with THP-1 (AML) cells was less than 0.1 µM throughout.

In the case of `Cn1c(-c2ccc(C3CC3)cc2)c(-c2ccc(C#N)nc2)cc(NC[C@H]2CCNC2)c1=O` [Example 73, (S)-5-(2-(4-cyclopropylphenyl)-1-methyl-6-oxo-5-(pyrrolidin-3-ylmethylamino)-1,6-dihydropyridin-3-yl)picolinonitrile], the IC50 on full-length human LSD1 and in the assay with THP-1 (AML) cells was less than 0.1 µM throughout.

For the compound `C[C@@H](c1ccccc1)n1cc(-c2ccc(C#N)cc2)nc(N2CCC(N)CC2)c1=O` [Example 13, 4-[6-(4-aminopiperidin-1-yl)-5-oxo-4-[(1S)-1-phenylethyl]-4,5-dihydropyrazin-2-yl]benzonitrile], the figures for the IC50 against full-length human LSD1 and with THP-1 (AML) cells were less than 0.1 µM and 1 to 10 µM, respectively.

For the compound `Cc1ccc(-c2c(-c3ccc(C#N)cc3)nc(N3CCC(C)(N)CC3)c(=O)n2C)cc1` [Example 21, 4-[6-(4-amino-4-methylpiperidin-1-yl)-4-methyl-3-(4-methylphenyl)-5-oxo-4,5-dihydropyrazin-2-yl]benzonitrile], the IC50 was less than 0.1 µM against full-length human LSD1 and 0.1 to 1 µM with THP-1 (AML) cells.

As for `CNC1CCN(c2cc(-c3ccc(C#N)cc3)c(-c3ccc(OC)cc3)n(C)c2=O)CC1` [Example 78, 4-{2-(4-methoxyphenyl)-1-methyl-5-[4-(methylamino)piperidyl]-6-oxo-3-hydropyridyl}benzenecarbonitrile], the IC50 against full-length human LSD1 and in the assay on THP-1 (AML) cells was less than 0.1 µM each time.

Consider `COc1ccc(-c2c(-c3ccc(C#N)nc3)nc(N3CCC(N)CC3)c(=O)n2C)cc1` [Example 51, 5-[6-(4-amino-piperidin-1-yl)-3-(4-methoxy-phenyl)-4-methyl-5-oxo-4,5-dihydro-pyrazin-2-yl]-pyridine-2-carbonitrile], for which the IC50 on full-length human LSD1 and in the assay on THP-1 (AML) cells was less than 0.1 µM each time.

Consider `COc1ccc(-c2c(-c3ccc(C#N)c(F)c3)nc(N3CCC(N)CC3)c(=O)n2CC(N)=O)cc1` [Example 88, 2-[3-(4-aminopiperidyl)-5-(4-cyano-3-fluorophenyl)-6-(4-methoxyphenyl)-2-oxohydropyrazinyl]acetamide], for which the IC50 against full-length human LSD1 and in the assay on THP-1 (AML) cells was less than 0.1 µM each time.
